This test has as its target T1, cathepsin K (Homo sapiens, UniProt P43235).
T1 sequence (P43235 115-329): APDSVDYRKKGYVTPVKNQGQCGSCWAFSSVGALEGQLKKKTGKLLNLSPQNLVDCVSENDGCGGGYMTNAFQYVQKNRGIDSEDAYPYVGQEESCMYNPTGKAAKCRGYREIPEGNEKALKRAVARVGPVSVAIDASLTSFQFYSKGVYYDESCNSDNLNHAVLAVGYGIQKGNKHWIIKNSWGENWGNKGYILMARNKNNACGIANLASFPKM
The test is described as follows: Study of the inhibition of cathepsin K (fluorogenic substrate Z-Val-Arg-AMC). In kind it is biochemical. As to conditions: cathepsin K 5 ng/ml, substrate Z-Val-Arg-AMC 20 μM, pH 5.5, two hours at room temperature; concentration range from 50 to 0.5 μM. As to the method: Pharmacological study of the products of the invention Study of the inhibition of cathepsin K
The test products (10 mM) are diluted to 1 mM in DMSO and distributed in polystyrene Nunc 96-well plates at a rate of 2 μl per well. Column 12 of the plate is reserved for the controls and thus receives […] of DMSO (without products) per well. The plates are stored at −80° C. and thawed on the day of the experiment.
The products are diluted to 50 μM by addition of 38 μl of reaction buffer: 100 mM sodium acetate, 5 mM EDTA, 1 mM DTT, pH 5.5. The addition and all the pipetting are performed with a 96-tip CybiWell pipette. After mixing the solutions, each product is transferred into 2 wells (duplicates) of a black Greiner 384-well plate at a rate of 10 μl per well. Two 96-well plates can thus be tested in one 384-well plate.
A solution of substrate, Z-Val-Arg-AMC (Calbiochem), at a concentration of 50 μm is prepared in the reaction buffer. The substrate is the distributed among all the wells of the 384-well plate (20 μl per well).
A solution of cathepsin K at a concentration of 12.5 ng/ml is prepared in the reaction buffer and distributed among all the wells of the 384-well plate (20 μl per well) except for the 16 wells serving as 100% inhibition controls (columns 23 and 24, lines I to P), which receive 20 μl of enzyme-free buffer. […] are performed in columns 23 and 24, lines A to H, which contain no products.
The plates are then incubated for two hours at room temperature, and then read on a Fluoroskan (Labsystems): excitation 390 nm; emission 460 nm.
The final concentrations of each of the reagents are: Products 10 μM, Substrate 20 μM, enzyme 5 ng/ml.
The percentages of inhibition for each of the products are calculated by using the points at 0 and 100% inhibition of each plate as references. The products showing significant inhibition are then retested over a concentration range from 50 to 0.5 μM to determine an IC50.
As a reminder, the IC50 is the midpoint of a concentration-inhibition curve. The low end stands for greater potency in that assay, the high end for weaker potency in that assay. As for `N#CC(NC(=O)[C@@H]1CCCN(C(=O)OCc2ccccc2)N1C(=O)CCNC(=O)Cc1ccccc1)c1ccccc1` (stereo partly drawn) [Example 10, (phenylmethyl) (3S)-3-[[(cyanophenylmethyl)amino]carbonyl]-2-[1-oxo-3-[(phenylacetyl)amino]propyl]tetrahydro-1(2H)-pyridazinecarboxylate], the IC50 was in the range of 1000 to 10000 nM.
In the case of `N#CNC(=O)[C@@H]1CCCNN1C(=O)CCNC(=O)Cc1ccccc1` [Example 13, (3S)-N-cyano-2-[1-oxo-3-[(phenylacetyl)amino]propyl]hexahydro-3-pyridazinecarb-oxamide] it was 1000 to 10000 nM; in that of `N#CC(NC(=O)[C@@H]1CCCN(C(=O)OCc2ccccc2)N1C(=O)CCNC(=O)Cc1ccccc1)c1cccc(Oc2ccccc2)c1` (stereo partly drawn) [Example 4, (phenylmethyl) (3S)-2-[1-oxo-3-[(phenylacetyl)amino]propyl]-3-[[[cyano(3-phenoxy-phenyl)methyl]amino]carbonyl]tetrahydro-1(2H)pyridazine-carboxylate], 1000 to 10000 nM; in that of `N#CC(NC(=O)[C@@H]1CCCNN1C(=O)CCNC(=O)Cc1ccccc1)c1ccccc1` (stereo partly drawn) [Example 11, (3S)-N-(cyanophenyl-methyl)-2-[1-oxo-3-[(phenylacetyl)amino]propyl]hexa-hydro-3-pyridazinecarboxamide], 1000 to 10000 nM.
`N#CC(OC(=O)[C@@H]1CCCN(C(=O)OCc2ccccc2)N1C(=O)CCNC(=O)Cc1ccccc1)c1cccc(Oc2ccccc2)c1` (mixture of isomers) [Example 7, 1-(phenylmethyl)-3-[(R)-cyano(3-phenoxyphenyl)methyl](3S)-2-[1-oxo-3-[(phenylacetyl)amino]propyl]tetrahydro-1,3(2H)-pyridazinedicarboxylate]: the IC50 lay in the range of 1000 to 10000 nM.
In the case of `N#CC(OC(=O)[C@@H]1CCCNN1C(=O)CCNC(=O)Cc1ccccc1)c1cccc(Oc2ccccc2)c1` (mixture of isomers) [Example 8, 3-[cyano(3-phenoxyphenyl)methyl] (3S)-2-[1-oxo-3-[(phenylacetyl)-amino]propyl]tetrahydro-1,3-(2H)-pyridazinecarboxylate] it was 1000 to 10000 nM; in that of `N#CC(NC(=O)[C@@H]1CCCNN1C(=O)CCNC(=O)Cc1ccccc1)c1cccc(Oc2ccccc2)c1` (mixture of isomers) [Example 5, (3S)-2-[3-[(phenylacetyl)amino]-1-oxopropyl]-N-[cyano-(3-phenoxyphenyl)methyl]hexahydro-3-pyridazine-carboxamide], < 1000 nM.
In the case of “(phenylmethyl) (3S)-3-[[[cyano(3-phenoxyphenyl)methyl]amino]carbonyl]-2-[3-phenyl-1-oxopropyl]tetrahydro-1(2H)-pyridazine-carboxylate [Example 14]” it was 1000 to 10000 nM; in that of `N#CC(OC(=O)[C@@H]1CCCN(C(=O)OCc2ccccc2)N1C(=O)CCNC(=O)Cc1ccccc1)c1cccc(Oc2ccc(Br)cc2)c1` (stereo partly drawn) [Example 9, 1-(phenylmethyl)-3-[cyano-3-[(4-bromophenoxy)phenyl]-methyl] (3S)2-[1-oxo-3-[(phenylacetyl)amino]propyl]-tetrahydro-1,3(2H)-pyridazinedicarboxylate], 1000 to 10000 nM.
To `N#CC(NC(=O)[C@@H]1CCCNN1C(=O)CCc1ccccc1)c1cccc(Oc2ccccc2)c1` (stereo partly drawn) [Example 15, (3S)-N-[cyano(3-phenoxyphenyl)methyl]-2-(1-oxo-3-phenylpropyl)hexa-hydro-3-pyridazinecarboxamide] belongs < 1000 nM; to `N#CCNC(=O)[C@@H]1CCCN(C(=O)OCc2ccccc2)N1C(=O)CCNC(=O)Cc1ccccc1` [Example 12], 1000 to 10000 nM.

Source of the values: patent publication US7223758B2, “Pyridazine derivative, pharmaceutical composition thereof, its pharmaceutical use, and process for its preparation” (Sanofi-Aventis, priority 2002, dated 2007).
